The target in test [1] is T1, hMC4R (Homo sapiens, UniProt P32245).
T1 construct: expressed in transfected cells; host or cells: HEK293
The experiment in a line: Competitive receptor binding assay, whole HEK293 cells, 125I-NDP-α-MSH. To be noted: for inhibition at 10 µM: 40 min, percentage of [125I]NDP-α-MSH displacement at 10 μM, read-out: BE%. Here is the method:
(§1) Competition binding experiments were performed on whole cells. The transfected HEK293 cell line with hMC4Rs were seeded on 96 well plates, 48 hours before the assay, 100,000 cells/well. For the assay, the medium was removed and cells were washed twice with a freshly prepared binding buffer containing 100% minimum essential medium with Earle's salt (MEM, GIBCO), 25 mM HEPES (pH 7.4), 0.2% bovine serum albumin, 1 mM 1,10-phenanthroline, 0.5 mg/L leupeptin, and 200 mg/L bacitracin. […] The medium was subsequently removed and each well was washed twice with the assay buffer. The cells are lysed by the addition of 250 μL of 0.1 NaOH and 250 μL of 1% Triton X-100. […] Data were analyzed using Graphpad Prism 6.0 (Graphpad Software, San Diego, CA).
IC50 and EC50 values represent the mean of duplicate experiments performed in triplicate. IC50 and EC50 estimates and their associated standard errors were determined by fitting the data using nonlinear least-squares analysis, with the help of Graphpad Prism 6.0 (Graphpad Software, San Diego, CA). […]

The target of test [2] is T2, hMC1R (Homo sapiens, UniProt Q01726).
T2 construct: expressed in transfected cells; host or cells: HEK293
T2 sequence (Q01726 whole entry): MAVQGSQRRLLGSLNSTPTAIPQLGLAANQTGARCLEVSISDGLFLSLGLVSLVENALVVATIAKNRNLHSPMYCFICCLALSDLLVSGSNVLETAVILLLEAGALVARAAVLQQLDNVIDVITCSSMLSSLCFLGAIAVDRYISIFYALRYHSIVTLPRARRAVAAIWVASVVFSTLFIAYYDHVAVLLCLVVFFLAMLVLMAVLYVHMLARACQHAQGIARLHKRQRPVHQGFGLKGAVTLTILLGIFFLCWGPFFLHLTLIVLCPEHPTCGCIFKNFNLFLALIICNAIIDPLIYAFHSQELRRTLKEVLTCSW
The test is described as above. To be noted: for inhibition at 10 µM: 40 min, hM1CR, percentage of NDP-α-MSH displacement at 10 μM, read-out: BE %. Here is the method:
[The procedure below names another target; the source lists this target under the same test.] (§2) Competition binding experiments were performed on whole cells. The transfected HEK293 cell line with hMC4Rs were seeded on 96 well plates, 48 hours before the assay, 100,000 cells/well. For the assay, the medium was removed and cells were washed twice with a freshly prepared binding buffer containing 100% minimum essential medium with Earle's salt (MEM, GIBCO), 25 mM HEPES (pH 7.4), 0.2% bovine serum albumin, 1 mM 1,10-phenanthroline, 0.5 mg/L leupeptin, and 200 mg/L bacitracin. […] The medium was subsequently removed and each well was washed twice with the assay buffer. The cells are lysed by the addition of 250 μL of 0.1 NaOH and 250 μL of 1% Triton X-100. The lysed cell was transferred to the 12×75 mm glass tubes and the radioactivity was measured by Wallac 1470 WIZARD Gamma Counter. Data were analyzed using Graphpad Prism 6.0 (Graphpad Software, San Diego, CA).
(§3) IC50 and EC50 values represent the mean of duplicate experiments performed in triplicate. IC50 and EC50 estimates and their associated standard errors were determined by fitting the data using nonlinear least-squares analysis, with the help of Graphpad Prism 6.0 (Graphpad Software, San Diego, CA).
(§4) NA indicates 0% cAMP accumulation observed at 10 μM. The peptides were tested over a range of concentrations from 10^-10 to 10^-5 M.

The target in test [3] is T3, hMC3R (Homo sapiens, UniProt P41968).
T3 construct: expressed in transfected cells; host or cells: HEK293
T3 sequence (P41968 whole entry): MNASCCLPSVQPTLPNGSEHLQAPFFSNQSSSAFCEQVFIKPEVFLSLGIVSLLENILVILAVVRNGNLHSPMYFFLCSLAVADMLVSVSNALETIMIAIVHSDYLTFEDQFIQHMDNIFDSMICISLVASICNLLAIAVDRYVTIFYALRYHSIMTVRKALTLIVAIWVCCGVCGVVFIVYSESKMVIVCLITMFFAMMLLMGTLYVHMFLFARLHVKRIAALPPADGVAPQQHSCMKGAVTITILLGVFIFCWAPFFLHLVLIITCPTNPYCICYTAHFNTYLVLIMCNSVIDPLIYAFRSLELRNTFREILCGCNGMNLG
The description is as above. The conditions noted are these: 40 min; hM3CR; percentage of NDP-α-MSH displacement at 10 μM; read-out: BE %. Here is the method: [The procedure below names another target; the source lists this target under the same test.] as §2, §3, §4

The target of test [4] is T2, hMC1R. Nature of the test: Adenylate cyclase (cAMP) assay in transfected HEK293 cells. It counts as cell-based. To be noted: HEK293, 0.05 h; hM1CR; cAMP at 10 μM in relation to MT-II; read-out: Act %. Here is the method:
(§5) HEK293 cells transfected with human melanocortin receptors were grown to confluence in MEM medium (GIBCO) containing 10% fetal bovine serum, 100 units/mL penicillin and streptomycin, and 1 mM sodium pyruvate. The cells were seeded on 96 well plates 48 hours before the assay, (100,000 cells/well). For the assay, the medium was removed and cells were rinsed with 1 mL of MEM buffer (GIBCO) or with Earle's balanced salt solution (EBSS, GIBCO). An aliquot (0.4 mL) of Earle's balanced salt solution was placed in each well along with isobutylmethylxanthine (IBMX; 5 μL; 0.5 mM) for 1 minute at 37° C. Varying concentrations of melanotropins (0.1 mL) were added and the cells incubated for 3 minutes at 37° C. The reaction was stopped by aspirating the buffer and adding ice-cold Tris/EDTA buffer to each well (0.15 mL). The 96 well plates were covered and placed on ice. After dislodging the cells, the plates were placed in a boiling water bath for 15 minutes. The cell lysate was then centrifuged for 10 minutes (4000 rpm), and 50 μL of the supernatant was aliquoted into perkinElmer glass fiber filter plate. cAMP content was measured by competitive binding assay in addition to 50 μL H^3 cAMP and 100 μL PKA. Then the system was placed on ice for 2 hours and then vacuum and filtered. 100 μL of the OptiPhase Supermix scintillation fluid was added to the plate. The plates stayed for 8 hours and then read by MicroBeta radiation plate reader.
as §3, §4

In test [5] the target is T3, hMC3R. The test is described as above. Format: cell-based. The conditions noted are these: hM3CR; for Emax at 10 µM: HEK293, 0.05 h, cAMP at 10 μM in relation to MT-II, read-out: Act %. Here is the method: as §5, §3, §4
In test [6] the target is T4, hMC5R (Homo sapiens, UniProt P33032).
T4 construct: expressed in transfected cells; host or cells: HEK293
T4 sequence (P33032 whole entry): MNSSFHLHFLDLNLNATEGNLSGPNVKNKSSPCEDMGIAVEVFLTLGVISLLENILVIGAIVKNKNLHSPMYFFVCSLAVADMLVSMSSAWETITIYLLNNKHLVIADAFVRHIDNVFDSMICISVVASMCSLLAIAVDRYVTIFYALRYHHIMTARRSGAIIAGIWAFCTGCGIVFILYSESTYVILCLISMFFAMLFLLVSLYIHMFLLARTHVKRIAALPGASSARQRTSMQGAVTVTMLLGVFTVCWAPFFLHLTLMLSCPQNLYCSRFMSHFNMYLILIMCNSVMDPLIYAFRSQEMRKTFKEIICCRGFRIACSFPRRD
The test is described as above. Format: cell-based. The conditions noted are these: hM5CR; for Emax at 10 µM: HEK293, 0.05 h, cAMP at 10 μM in relation to MT-II, read-out: Act %. Here is the method:
as §5, §3, §4

The target in test [7] is T4, hMC5R. Nature of the test: Competitive receptor binding assay, whole HEK293 cells, 125I-NDP-α-MSH. To be noted: 40 min; hM5CR; percentage of NDP-α-MSH displacement at 10 μM; read-out: BE %. Here is the method:
[The procedure below names another target; the source lists this target under the same test.] as §1, §3, §4

The target in test [8] is T1, hMC4R. The experiment in a line: Adenylate cyclase (cAMP) assay in transfected HEK293 cells. Format: cell-based. The conditions noted are these: for Emax at 10 µM: HEK293, 0.05 h, hM4CR, percentage of cAMP produced at 10 μM in relation to MT-II, read-out: Act%. Here is the method:
as §5, with “The” for “HEK293 cells transfected with human melanocortin receptors were grown to confluence in MEM medium (GIBCO) containing 10% fetal bovine serum, 100 units/mL penicillin and streptomycin, and 1 mM sodium pyruvate. The”, “reader. IC50 and EC50 values represent the mean of duplicate experiments performed in triplicate. […] NA indicates 0% cAMP accumulation observed at 10 μM. The peptides were tested over a range of concentrations from 10^-10 to 10^-5 M.” for “reader.”

For test [9], the target named is T1, hMC4R. The test is described as above. It counts as cell-based. The conditions noted are these: hM4CR; 50% maximal intracellular cAMP accumulation, N=4.
In test [10] the target is T1, hMC4R. The experiment in a line: Plasmon waveguide resonance (PWR) spectrum of hMC4R membranes with agonists.
Text: PWR uses polarized light generated from a CW He—Ne laser (λ=632.8 nm or λ=543.5 nm), which passes through a glass prism under total internal reflection conditions. A thin metal film (Ag), which is deposited on the external surface of the prism, is overcoated with another thin layer of SiO2 as dielectric media. When there is an object attached to the dielectric layer of SiO2, and polarized laser forms a specific incident angle with the outer surface layer, the resonant excitation of collective electronic oscillations (plasmons) happens and generates an evanescent electromagnetic field localized at the dielectric film, which gives the absorption spectrum at that specific angle. This can be used to probe the optical properties of molecules immobilized on the outer surface of the prism. Resonance is achieved either by varying the laser light wavelength at a fixed angle or by varying the angle at a fixed laser wavelength(we used the latter one in this research). Any changes of the immobilized yield distinct incident angle that evanescence happens in the dielectric layer. Due to the ability that laser light can be polarized to either parallel (p) or perpendicular (s) to the incident plane, characterization of the molecular organization of anisotropic systems can be fulfilled, such as biomembranes containing integral proteins. Under the experimental conditions described herein, the optical parameters obtained with the p-polarization refer to the perpendicular direction, and those obtained with s-polarization refer to the parallel direction, relative to the bilayer membrane surface.
Resonance spectra in this study were obtained using a PWR instrument from Biopeptek Pharmaceuticals LLC. […] Recombinant HEK293 cells expressing the hMC4R were grown to confluency. The confluent cell monolayers were then washed with Ca^2+ and Mg^2+-deficient phosphate-buffered saline and were harvested in the same buffer containing 0.02% ethylenediaminetetraacetic acid (EDTA). After centrifugation at 1500 g for 10 minutes, the cells were homogenized in an ice-cold 10 mM Tris-HCl buffer and 1 mM EDTA (pH 7.4). A crude membrane fraction was collected by centrifugation at 40,000 g for 20 minutes at −4° C. and was stored at −80° C. until use. Before the PWR experiment, the membrane fraction was resuspended in a 20 mM Tris-HCl buffer (pH 7.4) by mild homogenization. Protein concentration was determined by using a Bradford assay.
Under the experimental conditions employed herein, the oscillation of light with p-polarization reflects the dimension of objects perpendicular to the membrane, and those obtained under the s-polarization vector refer to the dimension in parallel with the bilayer membrane surface.

pEC50, pIC50: −log10 of the molar value.

T1 sequence (P32245 whole entry): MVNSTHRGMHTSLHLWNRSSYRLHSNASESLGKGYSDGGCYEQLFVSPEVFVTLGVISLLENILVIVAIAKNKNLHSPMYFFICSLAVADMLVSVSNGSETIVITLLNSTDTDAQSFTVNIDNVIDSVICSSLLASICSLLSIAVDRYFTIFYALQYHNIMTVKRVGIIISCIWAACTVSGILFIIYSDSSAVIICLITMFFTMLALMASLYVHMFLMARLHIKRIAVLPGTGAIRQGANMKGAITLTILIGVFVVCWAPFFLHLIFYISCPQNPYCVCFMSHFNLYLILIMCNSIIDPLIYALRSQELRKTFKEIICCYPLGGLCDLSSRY

What is called pIC50 is −log10 of the IC50, conventionally taken in molar units. Lower therefore signals a large IC50. Usually pEC50 stands for the negative decadic logarithm of the EC50, by convention in mol/L. As for `CC(=O)N[C@@H](CCCNC(=N)N)C(=O)N[C@H]1CC(=O)NCCCC[C@@H](C(N)=O)NC(=O)[C@H](Cc2c[nH]c3ccccc23)NC(=O)C[C@H](CCCNC(=N)N)NC(=O)[C@@H](Cc2ccc(F)cc2)NC(=O)[C@@H]2CCCCN2C1=O` [compound 5, Ac-Arg-cyclo[Asp-Pip-D-Phe(4-F)-βArg-Trp-Lys]-NH2], the inhibition at 10 µM on hMC4R [1] (hM4CR) was determined as 23%; on hMC1R [2], 100%; at hMC3R [3], 100%; on hMC5R [7], 0%. Also, the pIC50 at hMC4R [1] (hM4CR, concentration of peptide at 50% specific binding, N=4) was less than 6.00. Besides, the Emax at 10 µM at hMC1R [4] came out at 100%; at hMC3R [5], 59%; at hMC5R [6] it was 62%; on hMC4R [8] it was 84%. Also, the negative-log EC50 (pEC50) was less than 6.00 at hMC3R [5] (cAMP accumulation, N=4); less than 6.00 at hMC5R [6] (cAMP accumulation, N=4); less than 6.00 on hMC4R [9].

Take `CC(=O)N[C@@H](CCCNC(=N)N)C(=O)N[C@H]1CC(=O)NCCCC[C@@H](C(N)=O)NC(=O)C[C@H](Cc2c[nH]c3ccccc23)NC(=O)C[C@H](CCCNC(=N)N)NC(=O)[C@@H](Cc2ccc(Cl)cc2)NC(=O)[C@@H]2CCCCN2C1=O` [compound 9, Ac-Arg-cyclo[Asp-Pip-D-Phe(4-Cl)-βArg-BTrp-Lys]-NH2]: the inhibition at 10 µM stood at 100% at hMC4R [1] (hM4CR), 100% at hMC1R [2], 10% on hMC3R [3] and 75% on hMC5R [7]. Further, the “times higher in binding affinity to hMC4R than hMC1R” value at hMC4R [1] (hMC4R vs hMC1R) is “about 68 times”. The “times higher in binding affinity to hMC4R than hMC3R” value on hMC4R [1] (hMC4R vs hMC3R) is “over 1000 times”. Also, the “times higher in binding affinity to hMC4R than hMC5R” value on hMC4R [1] (hMC4R vs hMC5R) is “over 1000 times”. Further, the “hMC1R binding affinity (in words)” value at hMC1R [2] (compared with the other analogues) is reported as “lower binding affinities than the others”. Also, the Emax at 10 µM on hMC1R [4] worked out at 90%; at hMC3R [5], 63%; on hMC5R [6] it was 76%; on hMC4R [8], 87%. For the same compound, the “PWR peak location under p-polarization” value on hMC4R [10] (p-polarization, hMC4R sole 26.44) was 26.95. Moreover, the “PWR shift under s-polarization (in words)” value on hMC4R [10] (s-polarization) is “no significant change”. The “selectivity for hMC4R (in words)” value on hMC4R [8] (comparing the EC50 of a compound for each receptor) is recorded as “selective agonist of hMC4R”.

Take `CC(=O)N[C@@H](CCCNC(=N)N)C(=O)N[C@H]1CC(=O)NCCCC[C@@H](C(N)=O)NC(=O)C[C@H](Cc2c[nH]c3ccccc23)NC(=O)[C@H](CCCNC(=N)N)NC(=O)[C@@H](Cc2ccccc2)NC(=O)[C@@H]2CCCCN2C1=O` [compound 1, Ac-Arg-cyclo[Asp-Pip-D-Phe-Arg-BTrp-Lys]-NH2]: the inhibition at 10 µM at hMC4R [1] (hM4CR) stood at 0%; on hMC1R [2] it was 100%; on hMC3R [3], 60%; at hMC5R [7], 66%. In addition, the Emax at 10 µM at hMC1R [4] turned out to be 88%; at hMC3R [5], 88%; on hMC5R [6], 95%; at hMC4R [8], 63%. Besides, the pEC50 at hMC4R [9] is less than 6.00.

Source of the values: US20260049105A1, “SELECTIVE MC4R LIGAND FOR TREATING OBESITY AND COGNITIVE LOSS” (ARIZONA BOARD OF REGENTS ON BEHALF OF THE UNIVERSITY OF …, priority 2022, published 2026).
